Assay results: patent US4564627A, “Feed composition” (Nihon Nohyaku Co., Ltd., priority 1982, dated 1986)

Assays:
[1] = LD50 mouse (male); conditions: in vivo
Source text: Examples of the compounds represented by the general formula [1] according to this invention and their toxicities are shown below.

[2] = system: broilers; test: Crude fat content in liver of broilers (Test Example 1); format: in vivo, "A A Fuji" broilers (chicken)
Experimental: (§1) To each group consisting of 30 "A A Fuji" broilers (15 male, 15 female), a commercially available early period broiler feed (crumble form, Cp 22%, ME 3,030 kcal/kg) was given from beginning of feeding to 4 week age, and a latter period broiler feed (mash form, Cp 18%, ME 3,030 kcal/kg) was given ad libitum from 4 week age to 10 week age. The test period was from Oct. 10, 1981 through Dec. 20, 1981. Addition of test compounds to the above feeds in predetermined concentrations was conducted from 3 week age through the completion of the test.
(§2) Five broilers at 6 week age, five broilers at 8 week age and ten broilers at 10 week age were taken out from each group and slaughtered. Immediately after slaughtering, they were cooled in water for about 2 hr and the body weight of each slaughtered broiler was measured and subsequently they were stored at 2° C. for about 20 hr. Then, in order to measure abdominal fat, mesentary fat was removed and fat adhered to from gizzard to proventriculus was collected and weighed as the weight of abdominal fat. This weight was divided by body weight to obtain abdominal fat deposit per 100 g of body weight. Further, liver fat was also collected and weighed. A liver under freeze storage was cut into slices in a total quantity of 2 to 3 g. The slices were placed in a cylindrical filter paper and weighed. Then, these slices were dried for 3 hr in a hot air drier kept at 90° C. and subsequently extracted for 17 hr with ethyl ether in a Soxhlet fat extractor. After drying the extract for 3 hr at 60° C. and weighing the residue, crude fat content in liver was calculated.

[3] = system: broilers; test: Abdominal fat deposit of broilers (Test Example 1); format: in vivo, "A A Fuji" broilers (chicken)
Experimental: as §1, §2

[4] = system: laying hens; test: Thickness of eggshell of laying hens (Test Example 2); format: in vivo
Source text: (§3) As test hens, commercially available laying hens of 480 day age were used. The control group fed with a feed not containing any compound of this invention consisted of 100 laying hens, and each test group fed with a feed containing a compound of this invention consisted of 10 laying hens. The test was repeated twice. The test period was 16 weeks from Nov. 17, 1981 to Mar. 8, 1982. The first 4 weeks from the start was a preliminary observation period, during which each group was controlled so as to give the same egg production rate. As the feed, a commercially available feed for laying hens (Cp 16% or above, ME 2,800 kcal/kg or above) was used. From the 5th week, predetermined quantities of test compounds were uniformly added to this feed and the resulting blended feeds were given to test groups. Feeds and water were given ad libitum. Constant lighting was made for 14 hr a day. Egg production rate was daily recorded for each individual hen and egg weight for each test group. Feed intake quantity was obtained by calculating on every other week a difference between quantity fed and quantity left. For examining egg quality, strength of eggshell and thickness of eggshell were measured for all normal eggs laid during a period of the previous day of measurement to 3 P.M. of the measurement day. Strength of eggshell was measured by a FHK eggshell strength tester model FN-597, and thickness of eggshell by a dial thickness gauge.

[5] = system: laying hens; test: Strength of eggshell of laying hens (Test Example 2); format: in vivo
Source text: as §3

[6] = Growth of body weight of broilers (Test Example 1); format: in vivo, "A A Fuji" broilers (chicken); conditions: for Body weight at week age 0: week age 0 (before addition); for Body weight at week age 3: week age 3 (start of addition)
Experimental: as §1
(1) Growth of body weight
[…] All broilers were measured and an average body weight was calculated for each group.

## CC(C)OC(=O)C(C(=O)OC(C)C)=C1SCCS1 [compound 6]
[1]
  LD50: 1350 mg/kg
[2]; 6w, 100 ppm in feed
  Crude fat content in liver: 2.23%
[2]; 6w, 200 ppm in feed
  Crude fat content in liver: 2.03%
[2]; 6w, 400 ppm in feed
  Crude fat content in liver: 2.15%
[2]; 6w, 800 ppm in feed
  Crude fat content in liver: 2.14%
[2]; 6w, 1,600 ppm in feed
  Crude fat content in liver: 2.08%
[2]; 8w, 100 ppm in feed
  Crude fat content in liver: 5.51%
[2]; 8w, 200 ppm in feed
  Crude fat content in liver: 4.97%
[2]; 8w, 400 ppm in feed
  Crude fat content in liver: 4.53%
[2]; 8w, 800 ppm in feed
  Crude fat content in liver: 4.26%
[2]; 8w, 1,600 ppm in feed
  Crude fat content in liver: 4.32%
[2]; 10w, 100 ppm in feed
  Crude fat content in liver: 5.09%
[2]; 10w, 200 ppm in feed
  Crude fat content in liver: 4.33%
[2]; 10w, 400 ppm in feed
  Crude fat content in liver: 4.26%
[2]; 10w, 800 ppm in feed
  Crude fat content in liver: 4.33%
[2]; 10w, 1,600 ppm in feed
  Crude fat content in liver: 4.32%
[3]; 6w, 100 ppm in feed
  Abdominal fat deposit: 3.23 g/100 g
[3]; 6w, 200 ppm in feed
  Abdominal fat deposit: 3.24 g/100 g
[3]; 6w, 400 ppm in feed
  Abdominal fat deposit: 3.08 g/100 g
[3]; 6w, 800 ppm in feed
  Abdominal fat deposit: 3.14 g/100 g
[3]; 6w, 1,600 ppm in feed
  Abdominal fat deposit: 3.04 g/100 g
[3]; 8w, 100 ppm in feed
  Abdominal fat deposit: 3.72 g/100 g
[3]; 8w, 200 ppm in feed
  Abdominal fat deposit: 3.64 g/100 g
[3]; 8w, 400 ppm in feed
  Abdominal fat deposit: 3.38 g/100 g
[3]; 8w, 800 ppm in feed
  Abdominal fat deposit: 3.35 g/100 g
[3]; 8w, 1,600 ppm in feed
  Abdominal fat deposit: 3.32 g/100 g
[3]; 10w, 100 ppm in feed
  Abdominal fat deposit: 4.18 g/100 g
[3]; 10w, 200 ppm in feed
  Abdominal fat deposit: 4.03 g/100 g
[3]; 10w, 400 ppm in feed
  Abdominal fat deposit: 3.97 g/100 g
[3]; 10w, 800 ppm in feed
  Abdominal fat deposit: 3.85 g/100 g
[3]; 10w, 1,600 ppm in feed
  Abdominal fat deposit: 3.78 g/100 g
[4]; 509th day, 5 ppm in feed
  Eggshell thickness: 0.328 mm
[4]; 509th day, 25 ppm in feed
  Eggshell thickness: 0.345 mm
[4]; 509th day, 125 ppm in feed
  Eggshell thickness: 0.343 mm
[4]; 509th day, 625 ppm in feed
  Eggshell thickness: 0.325 mm
[4]; 555th day, 5 ppm in feed
  Eggshell thickness: 0.341 mm
[4]; 555th day, 25 ppm in feed
  Eggshell thickness: 0.345 mm
[4]; 555th day, 125 ppm in feed
  Eggshell thickness: 0.340 mm
[4]; 555th day, 625 ppm in feed
  Eggshell thickness: 0.346 mm
[4]; 612th day, 5 ppm in feed
  Eggshell thickness: 0.344 mm
[4]; 612th day, 25 ppm in feed
  Eggshell thickness: 0.341 mm
[4]; 612th day, 125 ppm in feed
  Eggshell thickness: 0.342 mm
[4]; 612th day, 625 ppm in feed
  Eggshell thickness: 0.348 mm
[5]; 509th day, 5 ppm in feed
  Eggshell strength: 2.40 kg
[5]; 509th day, 25 ppm in feed
  Eggshell strength: 2.47 kg
[5]; 509th day, 125 ppm in feed
  Eggshell strength: 2.39 kg
[5]; 509th day, 625 ppm in feed
  Eggshell strength: 2.42 kg
[5]; 555th day, 5 ppm in feed
  Eggshell strength: 2.75 kg
[5]; 555th day, 25 ppm in feed
  Eggshell strength: 2.88 kg
[5]; 555th day, 125 ppm in feed
  Eggshell strength: 2.95 kg
[5]; 555th day, 625 ppm in feed
  Eggshell strength: 3.01 kg
[5]; 612th day, 5 ppm in feed
  Eggshell strength: 2.74 kg
[5]; 612th day, 25 ppm in feed
  Eggshell strength: 2.99 kg
[5]; 612th day, 125 ppm in feed
  Eggshell strength: 3.11 kg
[5]; 612th day, 625 ppm in feed
  Eggshell strength: 3.07 kg
[6]; 100 ppm in feed from 3 week age
  Body weight at week age 0: 41 g
[6]; 200 ppm in feed from 3 week age
  Body weight at week age 0: 41 g
[6]; 400 ppm in feed from 3 week age
  Body weight at week age 0: 41 g
[6]; 800 ppm in feed from 3 week age
  Body weight at week age 0: 41 g
[6]; 1,600 ppm in feed from 3 week age
  Body weight at week age 0: 41 g
[6]; 100 ppm in feed
  Body weight at week age 3: 628 g
  Body weight at week age 4: 978 g
  Body weight at week age 5: 1,326 g
  Body weight at week age 6: 1,672 g
  Body weight at week age 7: 2,602 g
  Body weight at week age 8: 2,492 g
  Body weight at week age 9: 2,880 g
  Body weight at week age 10: 3,107 g
[6]; 200 ppm in feed
  Body weight at week age 3: 623 g
  Body weight at week age 4: 983 g
  Body weight at week age 5: 1,340 g
  Body weight at week age 6: 1,662 g
  Body weight at week age 7: 2,108 g
  Body weight at week age 8: 2,487 g
  Body weight at week age 9: 2,873 g
  Body weight at week age 10: 3,112 g
[6]; 400 ppm in feed
  Body weight at week age 3: 624 g
  Body weight at week age 4: 984 g
  Body weight at week age 5: 1,338 g
  Body weight at week age 6: 1,652 g
  Body weight at week age 7: 2,112 g
  Body weight at week age 8: 2,505 g
  Body weight at week age 9: 2,865 g
  Body weight at week age 10: 3,086 g
[6]; 800 ppm in feed
  Body weight at week age 3: 622 g
  Body weight at week age 4: 981 g
  Body weight at week age 5: 1,332 g
  Body weight at week age 6: 1,657 g
  Body weight at week age 7: 2,063 g
  Body weight at week age 8: 2,501 g
  Body weight at week age 9: 2,858 g
  Body weight at week age 10: 3,024 g
[6]; 1,600 ppm in feed
  Body weight at week age 3: 624 g
  Body weight at week age 4: 980 g
  Body weight at week age 5: 1,328 g
  Body weight at week age 6: 1,663 g
  Body weight at week age 7: 2,102 g
  Body weight at week age 8: 2,483 g
  Body weight at week age 9: 2,864 g
  Body weight at week age 10: 3,033 g
